# Data taken from publication PMC7041945, “Misfolded proteins bind and activate death receptor 5 to trigger apoptosis during unresolved endoplasmic reticulum stress” (eLife, 2020).
# Assays:
# DR5 = experiment: GFP immunoprecipitation: DR5 (FADD, caspase 8) recovered with GFP-tagged protein, Western blot; format: cell-based, Homo sapiens; details: for fraction of DR5 IP'ed: GFP IP
# Procedure: 15 cm dishes were seeded with 4 million HCT116 cells and allowed to recover for 18 hr prior to transfection. Samples were then transfected for 24 hr with the GFP-tagged ER trafficked protein, cytosolic GFP, or empty vector. To harvest apoptotic and living cells for each sample, all media and washes were collected. Cells were scraped in 2 ml of cold PBS and combined with the media and washes. Samples were centrifuged to pellet cells, washed with 1 ml cold PBS, and flash frozen in liquid N2 prior to lysis.
# The cell pellets were resuspended in 750 μl of 30 mM HEPES pH 7.2, 150 mM NaCl, 1% Triton X-100 with 1x Roche protease inhibitor cocktail (if used subsequently for caspase glo 8 assay) or with 5x Roche protease inhibitor cocktail (if used for immunoblotting). The cells were lysed by mechanical shearing through a 25G needle for 13–15 plunges followed by incubation on ice for 30 min. The lysate was centrifuged at 2000xg for 5 min to remove debris and then incubated with 30 μl of GFP-Trap magnetic agarose beads (Chromotek gtma-20) for 4 hr at 4°C. The beads were then washed with 750 μl of lysis buffer for 10 min at 4°C for three rounds.
# For Western blots, samples were eluted by adding 35 μl of non-reducing SDS gel loading buffer (50 mM Tris-HCl (pH 6.8), 2% SDS, 0.1% bromophenol blue, 10% glycerol) and incubated for 10 min at 70°C. The beads were then magnetically removed from the eluted sample before adding DTT to a final concentration of 25 mM. The entire sample was loaded onto the gel and immunoblotted for DR5, caspase 8, and GFP, in that order.
# [1] = system: CHOP, BiP, and DR5 mRNA in HCT116 cells; experiment: qPCR of UPR target transcripts (CHOP, BiP, DR5); format: cell-based, Homo sapiens; details: for avg. fold induction CHOP / avg. fold induction DR5 total / fold induction CHOP / fold induction DR5 total / 2^-(deltaCq) CHOP / 2^-(deltaCq) DR5 total / Cq CHOP / Cq DR5 total / Cq(sample) - avg Cq(GAPDH), CHOP / Cq(sample) - avg Cq(GAPDH), DR5 total: Rep 2; for avg. fold induction CHOP / avg. fold induction DR5 total / fold induction CHOP / fold induction DR5 total: relative to empty traffo; for avg. fold induction CHOP / avg. fold induction DR5 total: mean of 3 replicates
# Procedure: Cells were grown in 6-well plates and harvested with 0.5 ml of TRIzol reagent (Life Technologies) per manufacturer’s protocol to extract RNA. For cDNA synthesis, 500 ng of total RNA was reverse transcribed with 2 μl of the SuperScript VILO master mix (Life Technologies # 11755050) in a total reaction volume of 10 μl following the manufacturer’s protocol for reaction temperature and duration. The reverse transcription product was diluted to 200 μl with 10 mM Tris-HCl pH 8.2 and used at 1:100 dilution for subsequent RT-PCR reactions.
# PCR samples were prepared as described by manufacturer’s protocols from iQ SYBR Green Supermix (BioRad #17088800).
# For each experiment, qRT-PCR reactions were set up in triplicate and run using a CFX96 Real Time System (Bio-Rad). Quantitation cycles were determined with CFX Manager 3.0 software (Bio-Rad) and then normalized to GAPDH as an internal control.
# [2] = Compiled Reps INS RHO, average of 6 reps
substance,measurement,setting,value
INS-GFP: GFP-tagged proinsulin expressed from plasmid,fraction of DR5 IP'ed,DR5; sheet 2018-04-13 rep 2,0.03271
same,fraction of DR5 IP'ed,DR5; sheet 2018-09-20 rep 1,0.01265
same,fraction IP'ed,DR5; Rep 1 (second series),0.03271
same,fraction IP'ed,DR5; Rep 2 (second series),0.01265
same,% IP'ed,DR5; average of all replicates,2.268%
same,"fraction IP'ed, average",DR5; average of all replicates,0.02268
same,Mean ± SEM (fraction IP'ed),"DR5; unpaired t test sheet, GFP n=5, MPZ n=3, INS n=2, RHO n=2","0.02268 ± 0.01003, n=2"
same,95% confidence interval (difference between means),"DR5; vs. GFP, fraction IP'ed",-0.02195 to 0.04688
same,Difference between means,"DR5; vs. GFP, fraction IP'ed, ± SEM",0.01247 ± 0.01339
same,avg. fold induction CHOP,[1]; 3 hr,2.592
same,avg. fold induction DR5 total,[1]; 3 hr,0.7038
same,fold induction CHOP,"[1]; 3 hr, replicate 1",2.854
same,fold induction DR5 total,"[1]; 3 hr, replicate 1",0.6229
same,fold induction CHOP,"[1]; 3 hr, replicate 2",2.329
same,fold induction DR5 total,"[1]; 3 hr, replicate 2",0.8572
same,fold induction CHOP,"[1]; 3 hr, replicate 3",2.592
same,fold induction DR5 total,"[1]; 3 hr, replicate 3",0.6314
same,2^-(deltaCq) CHOP,"[1]; 3 hr, replicate 1",0.03284
same,2^-(deltaCq) DR5 total,"[1]; 3 hr, replicate 1",0.01816
same,Cq CHOP,"[1]; 3 hr, replicate 1",24.0903
same,Cq DR5 total,"[1]; 3 hr, replicate 1",24.9448
same,"Cq(sample) - avg Cq(GAPDH), CHOP","[1]; 3 hr, replicate 1",4.928
same,"Cq(sample) - avg Cq(GAPDH), DR5 total","[1]; 3 hr, replicate 1",5.783
same,2^-(deltaCq) CHOP,"[1]; 3 hr, replicate 2",0.0268
same,2^-(deltaCq) DR5 total,"[1]; 3 hr, replicate 2",0.02499
same,Cq CHOP,"[1]; 3 hr, replicate 2",24.3837
same,Cq DR5 total,"[1]; 3 hr, replicate 2",24.4842
same,"Cq(sample) - avg Cq(GAPDH), CHOP","[1]; 3 hr, replicate 2",5.2218
same,"Cq(sample) - avg Cq(GAPDH), DR5 total","[1]; 3 hr, replicate 2",5.322
same,2^-(deltaCq) CHOP,"[1]; 3 hr, replicate 3",0.02982
same,2^-(deltaCq) DR5 total,"[1]; 3 hr, replicate 3",0.01841
same,Cq CHOP,"[1]; 3 hr, replicate 3",24.2295
same,Cq DR5 total,"[1]; 3 hr, replicate 3",24.9253
same,"Cq(sample) - avg Cq(GAPDH), CHOP","[1]; 3 hr, replicate 3",5.068
same,"Cq(sample) - avg Cq(GAPDH), DR5 total","[1]; 3 hr, replicate 3",5.763
same,avg. fold induction CHOP,[1]; 7 hr,6.389
same,avg. fold induction DR5 total,[1]; 7 hr,1.383
same,fold induction CHOP,"[1]; 7 hr, replicate 1",6.347
same,fold induction DR5 total,"[1]; 7 hr, replicate 1",1.604
same,fold induction CHOP,"[1]; 7 hr, replicate 2",6.646
same,fold induction DR5 total,"[1]; 7 hr, replicate 2",1.272
same,fold induction CHOP,"[1]; 7 hr, replicate 3",6.175
same,fold induction DR5 total,"[1]; 7 hr, replicate 3",1.275
same,2^-(deltaCq) CHOP,"[1]; 7 hr, replicate 1",0.07302
same,2^-(deltaCq) DR5 total,"[1]; 7 hr, replicate 1",0.04677
same,Cq CHOP,"[1]; 7 hr, replicate 1",23.0759
same,Cq DR5 total,"[1]; 7 hr, replicate 1",23.7188
same,"Cq(sample) - avg Cq(GAPDH), CHOP","[1]; 7 hr, replicate 1",3.776
same,"Cq(sample) - avg Cq(GAPDH), DR5 total","[1]; 7 hr, replicate 1",4.418
same,2^-(deltaCq) CHOP,"[1]; 7 hr, replicate 2",0.07646
same,2^-(deltaCq) DR5 total,"[1]; 7 hr, replicate 2",0.03708
same,Cq CHOP,"[1]; 7 hr, replicate 2",23.0096
same,Cq DR5 total,"[1]; 7 hr, replicate 2",24.0535
same,"Cq(sample) - avg Cq(GAPDH), CHOP","[1]; 7 hr, replicate 2",3.709
same,"Cq(sample) - avg Cq(GAPDH), DR5 total","[1]; 7 hr, replicate 2",4.753
same,2^-(deltaCq) CHOP,"[1]; 7 hr, replicate 3",0.07103
same,2^-(deltaCq) DR5 total,"[1]; 7 hr, replicate 3",0.03717
same,Cq CHOP,"[1]; 7 hr, replicate 3",23.1157
same,Cq DR5 total,"[1]; 7 hr, replicate 3",24.0502
same,"Cq(sample) - avg Cq(GAPDH), CHOP","[1]; 7 hr, replicate 3",3.815
same,"Cq(sample) - avg Cq(GAPDH), DR5 total","[1]; 7 hr, replicate 3",4.75
same,avg. fold induction CHOP,[1]; 24 hr,5.115
same,avg. fold induction DR5 total,[1]; 24 hr,1.535
same,fold induction CHOP,"[1]; 24 hr, replicate 1",6.073
same,fold induction DR5 total,"[1]; 24 hr, replicate 1",1.494
same,fold induction CHOP,"[1]; 24 hr, replicate 2",4.514
same,fold induction DR5 total,"[1]; 24 hr, replicate 2",1.718
same,fold induction CHOP,"[1]; 24 hr, replicate 3",4.759
same,fold induction DR5 total,"[1]; 24 hr, replicate 3",1.392
same,2^-(deltaCq) CHOP,"[1]; 24 hr, replicate 1",0.06987
same,2^-(deltaCq) DR5 total,"[1]; 24 hr, replicate 1",0.04358
same,Cq CHOP,"[1]; 24 hr, replicate 1",23.5439
same,Cq DR5 total,"[1]; 24 hr, replicate 1",24.225
same,"Cq(sample) - avg Cq(GAPDH), CHOP","[1]; 24 hr, replicate 1",3.839
same,"Cq(sample) - avg Cq(GAPDH), DR5 total","[1]; 24 hr, replicate 1",4.52
same,2^-(deltaCq) CHOP,"[1]; 24 hr, replicate 2",0.05193
same,2^-(deltaCq) DR5 total,"[1]; 24 hr, replicate 2",0.05009
same,Cq CHOP,"[1]; 24 hr, replicate 2",23.972
same,Cq DR5 total,"[1]; 24 hr, replicate 2",24.0239
same,"Cq(sample) - avg Cq(GAPDH), CHOP","[1]; 24 hr, replicate 2",4.267
same,"Cq(sample) - avg Cq(GAPDH), DR5 total","[1]; 24 hr, replicate 2",4.319
same,2^-(deltaCq) CHOP,"[1]; 24 hr, replicate 3",0.05475
same,2^-(deltaCq) DR5 total,"[1]; 24 hr, replicate 3",0.04058
same,Cq CHOP,"[1]; 24 hr, replicate 3",23.8955
same,Cq DR5 total,"[1]; 24 hr, replicate 3",24.3278
same,"Cq(sample) - avg Cq(GAPDH), CHOP","[1]; 24 hr, replicate 3",4.191
same,"Cq(sample) - avg Cq(GAPDH), DR5 total","[1]; 24 hr, replicate 3",4.623
same,BiP avg fold change relative to empty,"[1]; Compiled Reps INS RHO, average of 3 reps",1.818
same,CHOP avg fold change relative to empty,[1]; [2],4.114
same,DR5 avg fold change relative to empty,[1]; [2],1.533
same,GAPDH avg fold change relative to empty,[1]; [2],1.006
same,GFP construct avg fold change relative to empty,[1]; [2],92.5691
same,BiP fold change relative to empty,"[1]; Compiled Reps INS RHO, rep 1",1.621
same,CHOP fold change relative to empty,"[1]; Compiled Reps INS RHO, rep 1",3.15
same,DR5 fold change relative to empty,"[1]; Compiled Reps INS RHO, rep 1",1.705
same,GAPDH fold change relative to empty,"[1]; Compiled Reps INS RHO, rep 1",0.8468
same,GFP construct fold change relative to empty,"[1]; Compiled Reps INS RHO, rep 1",79.1961
same,BiP fold change relative to empty,"[1]; Compiled Reps INS RHO, rep 2",1.965
same,CHOP fold change relative to empty,"[1]; Compiled Reps INS RHO, rep 2",3.503
same,DR5 fold change relative to empty,"[1]; Compiled Reps INS RHO, rep 2",1.533
same,GAPDH fold change relative to empty,"[1]; Compiled Reps INS RHO, rep 2",1.093
same,GFP construct fold change relative to empty,"[1]; Compiled Reps INS RHO, rep 2",73.666
same,BiP fold change relative to empty,"[1]; Compiled Reps INS RHO, rep 3",1.867
same,CHOP fold change relative to empty,"[1]; Compiled Reps INS RHO, rep 3",2.685
same,DR5 fold change relative to empty,"[1]; Compiled Reps INS RHO, rep 3",1.358
same,GAPDH fold change relative to empty,"[1]; Compiled Reps INS RHO, rep 3",1.081
same,GFP construct fold change relative to empty,"[1]; Compiled Reps INS RHO, rep 3",131.33
same,CHOP fold change relative to empty,"[1]; Compiled Reps INS RHO, rep 4",6.073
same,DR5 fold change relative to empty,"[1]; Compiled Reps INS RHO, rep 4",1.494
same,GAPDH fold change relative to empty,"[1]; Compiled Reps INS RHO, rep 4",0.8281
same,GFP construct fold change relative to empty,"[1]; Compiled Reps INS RHO, rep 4",82.5431
same,CHOP fold change relative to empty,"[1]; Compiled Reps INS RHO, rep 5",4.514
same,DR5 fold change relative to empty,"[1]; Compiled Reps INS RHO, rep 5",1.718
same,GAPDH fold change relative to empty,"[1]; Compiled Reps INS RHO, rep 5",1.042
same,GFP construct fold change relative to empty,"[1]; Compiled Reps INS RHO, rep 5",92.9155
same,CHOP fold change relative to empty,"[1]; Compiled Reps INS RHO, rep 6",4.759
same,DR5 fold change relative to empty,"[1]; Compiled Reps INS RHO, rep 6",1.392
same,GAPDH fold change relative to empty,"[1]; Compiled Reps INS RHO, rep 6",1.149
same,GFP construct fold change relative to empty,"[1]; Compiled Reps INS RHO, rep 6",95.7639
same,UPR target gene transcription,"[1]; HCT116, transfected 24 hr",upregulated BiP and CHOP mRNAs
